# In ChEMBL document CHEMBL4190378, “Synthesis and evaluation of new 2-chloro-4-aminopyrimidine and 2,6-dimethyl-4-aminopyrimidine derivatives as tubulin polymerization inhibitors” (Bioorg Med Chem Lett, 2018):
# Calls of active or inactive are those of the source. The rule behind the calls is not given here.
# Experiments:
# [1] = test system: HeLa; test: Induction of cell cycle arrest in human HeLa cells assessed as induction of disappearance of G2/M phase at 100 nM incubated for 48 hrs by propidium iodide staining based flow cytometry; assay type: functional
# [2] = test system: HeLa; test: Inhibition of tubulin polymerization in human HeLa cells assessed as morphological changes by measuring microtubule organisation derangement at 0.05 uM incubated for 24 hrs by laser scanning confocal microscopy; assay type: functional, cell-based
# [3] = test system: HeLa; test: Induction of apoptosis in human HeLa cells assessed as early apoptotic cells level at 50 nM incubated for 48 hrs by Annexin-V/FITC and propidium iodide staining based flow cytometry (reference value: 0.16%); assay type: functional
# [4] = test system: HeLa; test: Induction of apoptosis in human HeLa cells assessed as late apoptotic cells level at 50 nM incubated for 48 hrs by Annexin-V/FITC and propidium iodide staining based flow cytometry (reference value: 0.02%); assay type: functional
# [5] = test system: HeLa; test: Induction of apoptosis in human HeLa cells assessed as viable cells level at 100 nM incubated for 48 hrs by Annexin-V/FITC and propidium iodide staining based flow cytometry (reference value: 99.72%); assay type: functional
# [6] = test system: HeLa; test: Induction of apoptosis in human HeLa cells assessed as late apoptotic cells level at 500 nM incubated for 48 hrs by Annexin-V/FITC and propidium iodide staining based flow cytometry (reference value: 0.02%); assay type: functional
# [7] = test system: HeLa; test: Induction of apoptosis in human HeLa cells assessed as necrotic cells level at 500 nM incubated for 48 hrs by Annexin-V/FITC and propidium iodide staining based flow cytometry (reference value: 0.03%); assay type: functional
# [8] = test system: HeLa; test: Induction of apoptosis in human HeLa cells assessed as early apoptotic cells level at 50 nM incubated for 72 hrs by Annexin-V/FITC and propidium iodide staining based flow cytometry (reference value: 0.16%); assay type: functional
# [9] = test system: HeLa; test: Induction of apoptosis in human HeLa cells assessed as viable cells level at 100 nM incubated for 72 hrs by Annexin-V/FITC and propidium iodide staining based flow cytometry (reference value: 99.72%); assay type: functional
# [10] = test system: HeLa; test: Induction of apoptosis in human HeLa cells assessed as early apoptotic cells level at 100 nM incubated for 72 hrs by Annexin-V/FITC and propidium iodide staining based flow cytometry (reference value: 0.16%); assay type: functional
# [11] = test system: HeLa; test: Induction of apoptosis in human HeLa cells assessed as late apoptotic cells level at 100 nM incubated for 72 hrs by Annexin-V/FITC and propidium iodide staining based flow cytometry (reference value: 0.02%); assay type: functional
# [12] = test system: HeLa; test: Induction of mitochondrial transmembrane potential loss in human HeLa cells assessed as JC1 dye monomers level at 100 nM incubated for 24 hrs by JC1 staining based flow cytometry (reference value: 4.12%); assay type: functional
# [13] = test system: HeLa; test: Induction of mitochondrial transmembrane potential loss in human HeLa cells assessed as JC1 dye aggregates level at 500 nM incubated for 24 hrs by JC1 staining based flow cytometry (reference value: 95.85%); assay type: functional
# [14] = test system: HeLa; test: Induction of mitochondrial transmembrane potential loss in human HeLa cells at 500 nM incubated for 24 hrs by JC1 staining based fluorescence microscopy; assay type: functional, cell-based
smiles,measurement,setting,value
COc1ccc(N(C)c2cc(C)nc(C)n2)cc1O,Activity,[1],Active
same,inhibition,[2],Active
same,Activity,[3],10.44%
same,Activity,[4],0%
same,Activity,[5],76.71%
same,Activity,[6],0.09%
same,Activity,[7],0.29%
same,Activity,[8],9.78%
same,Activity,[9],65.2%
same,Activity,[10],21.09%
same,Activity,[11],11.63%
same,Activity,[12],28.64%
same,Activity,[13],51.28%
same,Activity,[14],Active
